Laboratory results as given in BigSolDB 2.1.

CC(=O)c1ccc2cc(C)ccc2c1
Conditions | solubility (mole fraction)
in n-dodecane, 273.15 K | 0.00876
in n-dodecane, 279.65 K | 0.0122
in n-dodecane, 283.15 K | 0.0146
in n-dodecane, 288.15 K | 0.0188
in n-dodecane, 291.15 K | 0.022
in n-dodecane, 293.65 K | 0.0254
in n-dodecane, 296.65 K | 0.0291
in n-dodecane, 299.15 K | 0.0339
in n-dodecane, 301.65 K | 0.037
in n-dodecane, 305.15 K | 0.046
in n-dodecane, 308.15 K | 0.0535
in n-dodecane, 311.15 K | 0.0683
in n-heptane, 273.15 K | 0.00938
in n-heptane, 277.15 K | 0.0104
in n-heptane, 279.15 K | 0.0114
in n-heptane, 282.15 K | 0.013
in n-heptane, 285.15 K | 0.0151
in n-heptane, 288.15 K | 0.0177
in n-heptane, 291.15 K | 0.0217
in n-heptane, 294.15 K | 0.0258
in n-heptane, 297.15 K | 0.0293
in n-heptane, 299.65 K | 0.0345
in n-heptane, 303.15 K | 0.0428
in n-heptane, 306.15 K | 0.0484
in n-heptane, 309.15 K | 0.0566
in n-heptane, 311.15 K | 0.0629
in n-heptane, 313.15 K | 0.0716
in n-heptane, 316.15 K | 0.0852
in n-heptane, 319.15 K | 0.105
in n-octane, 273.15 K | 0.00895
in n-octane, 277.65 K | 0.0105
in n-octane, 283.15 K | 0.0139
in n-octane, 287.15 K | 0.0172
in n-octane, 291.15 K | 0.0211
in n-octane, 293.15 K | 0.0239
in n-octane, 297.15 K | 0.029
in n-octane, 301.15 K | 0.0371
in n-octane, 303.15 K | 0.0417
in n-octane, 306.65 K | 0.0487
in n-octane, 311.15 K | 0.0623
in n-octane, 314.15 K | 0.0755
in n-octane, 316.15 K | 0.0861
in n-octane, 319.15 K | 0.106

CC(=O)c1ccc2ccc(C)cc2c1
solubility (mole fraction)
Conditions | in n-dodecane | in n-heptane | in n-octane
273.15 K | 0.00013 | 0.000115 | 0.000114
275.15 K | 0.000135 | 0.000124 | –
276.15 K | – | – | 0.00013
277.15 K | – | 0.000138 | –
278.15 K | 0.000158 | – | –
279.15 K | – | 0.000157 | 0.000152
281.15 K | 0.000195 | – | 0.000172
282.15 K | – | 0.000182 | –
283.15 K | 0.000205 | – | –
284.15 K | – | – | 0.000194
286.15 K | 0.000239 | 0.000228 | –
287.15 K | – | – | 0.000231
289.15 K | 0.000287 | 0.000268 | 0.000254
291.15 K | – | 0.000297 | –
292.15 K | 0.000339 | – | 0.000291
293.15 K | – | 0.000344 | –
295.15 K | 0.00041 | – | 0.000343
297.15 K | 0.000454 | – | 0.000387
300.15 K | 0.000526 | – | –
